Laboratory results from patent publication US20060223812A1, “Treating neurodegenerative conditions” (MAX-PLANCK-GESELLSCHAFT ZUR FORDERUNGDER WISSENSCHAFTEN, …, priority 2004, published 2006).
Like-named read-outs stand apart in the source and are kept apart here.

How the values were obtained:
htau24 = target: T1, htau24 (Homo sapiens, UniProt P10636); experiment: Thioflavine S assay, inhibition of PHF formation, htau24; assay type: biochemical; details: for IC50: ThS fluorescence, read-out: Inhibition of tau aggregation IC50, hTau24; for inhibition at 60 µM: read-out: inhibition of PHF formation, htau24; for effect on PHF formation, htau24: compared to htau23
T1 construct: made in house; host or cells: E. coli
T1 sequence (P10636 1-383 isoform P10636-6): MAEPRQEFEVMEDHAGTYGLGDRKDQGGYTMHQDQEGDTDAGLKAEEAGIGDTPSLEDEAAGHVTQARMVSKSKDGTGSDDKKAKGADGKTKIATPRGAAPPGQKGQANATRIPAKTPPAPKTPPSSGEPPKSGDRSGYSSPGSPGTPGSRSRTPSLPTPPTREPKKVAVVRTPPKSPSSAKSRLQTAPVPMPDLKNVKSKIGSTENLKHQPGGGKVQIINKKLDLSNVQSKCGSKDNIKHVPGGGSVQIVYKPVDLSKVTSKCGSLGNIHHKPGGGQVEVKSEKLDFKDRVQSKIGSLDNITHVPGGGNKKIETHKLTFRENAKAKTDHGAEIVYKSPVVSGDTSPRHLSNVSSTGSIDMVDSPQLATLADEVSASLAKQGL
Protocol: (§1) Assembly of synthetic PHFs of tau protein (K19, 10 μM) was performed at 37° C. in the presence of polyanions (heparin; 5 μM) in 50 mM NH4Ac, pH 6.8. Assembly was followed either qualitatively by electron microscopy or quantitatively by fluorescence assay using thioflavine S. PHF-formation of tau isoforms htau23 and htau24 was carried out in PBS-buffer pH 7.4, 50 μM protein, and 12.5 μM heparin. The samples were incubated at 50° C. for 10 days. In the case of htau24 and K18, DTT was added at a final concentration of 1 mM each day in order to avoid intra-molecular disulfide crosslinking (Barghorn et al., 2000).

PHFs from K18 = target: T2, PHFs from K18 (Homo sapiens, UniProt P10636); experiment: Thioflavine S assay, depolymerisation of pre-formed PHFs, K18; assay type: biochemical
T2 construct: made in house; host or cells: E. coli
T2 sequence (P10636 561-685 limits assumed): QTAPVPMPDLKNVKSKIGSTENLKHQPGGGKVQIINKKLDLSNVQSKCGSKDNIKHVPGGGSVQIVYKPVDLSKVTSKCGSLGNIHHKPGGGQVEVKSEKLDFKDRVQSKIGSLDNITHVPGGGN
Description: (§2) The ThS assay was used to analyse the ability of the five compounds (see Example 4) to depolymerise pre-formed PHFs made from the repeat domain constructs K19 and K18 as well as from isoforms htau23 and htau24, containing 3 or 4 repeats, respectively.
The depolymerisation of K19 filaments (FIG. 4A) followed a similar concentration dependence as the inhibition experiment, with consistently similar or slightly higher DC50 values than the corresponding IC50 concentrations (Table 2). The ratios of IC50/DC50 range from 0.2-1.2. […] Here, too, the concentration dependence for K19 was steeper than for K18 (compare FIGS. 4A, B), similar to that of assembly inhibition (FIGS. 2A, B).
(§3) Tau constructs and isoforms K19, K18, hTau23, hTau24 (10 μM) were first aggregated into PHFs for 48 hours in the presence of 2.5 μM heparin (except K18/ΔK280) and the polymers separated from the soluble tau by centrifugation of 1 h at 100,000 g, redissolved and then exposed to the inhibitors overnight at 37° C. at the indicated concentrations (range 0.001-200 μM). The compounds are capable of disassembling PHFs with varying efficiencies (see Table 2).

PHFs from K18/ΔK280 = experiment: Thioflavine S assay, depolymerisation of pre-formed PHFs, K18/ΔK280 without heparin; assay type: biochemical, human; details: ThS fluorescence, PHFs made without heparin
Protocol: as §2
The higher DC50 values for K18/ΔK280 point to the higher stability of PHFs formed by this mutant.
as §3

htau23 = target: T3, htau23 (Homo sapiens, UniProt P10636); experiment: Thioflavine S assay, inhibition of PHF formation, htau23; assay type: biochemical; details: for inhibition at 0.1 µM / inhibition at 60 µM: read-out: inhibition of PHF formation, htau23; for effect on PHF formation, htau23: low concentration
T3 construct: made in house; host or cells: E. coli
T3 sequence (P10636 1-352 isoform P10636-2): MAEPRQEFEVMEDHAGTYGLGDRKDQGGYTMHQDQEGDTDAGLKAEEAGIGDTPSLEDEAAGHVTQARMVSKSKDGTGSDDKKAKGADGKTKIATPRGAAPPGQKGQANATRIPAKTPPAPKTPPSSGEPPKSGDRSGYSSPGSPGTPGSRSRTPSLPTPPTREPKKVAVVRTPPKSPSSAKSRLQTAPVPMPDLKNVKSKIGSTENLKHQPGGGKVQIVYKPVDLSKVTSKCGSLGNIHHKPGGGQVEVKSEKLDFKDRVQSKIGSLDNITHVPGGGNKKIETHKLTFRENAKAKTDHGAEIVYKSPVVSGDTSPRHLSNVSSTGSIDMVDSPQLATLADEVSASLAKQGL
Protocol: as §1

Aβ1-40 peptide = target: T4, Aβ1-40 peptide (Homo sapiens, UniProt P05067); experiment: Aβ fibre aggregation inhibition (thioflavine T); assay type: biochemical; details: 60 μM compound
T4 construct: Commercial human Aβ1-40 was obtained from Calbiochem; purchased Calbiochem
T4 sequence (P05067 672-711): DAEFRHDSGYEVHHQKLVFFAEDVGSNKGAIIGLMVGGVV
Protocol: Besides the activity of the compounds towards tau fibres, their specificity is an important issue, i.e. the ability to discriminate between different types of aggregates. Therefore, an analysis of the influence of the compounds (60 μM) on amyloid fibrils made from the Aβ1-40 peptide, both in terms of inhibition of de novo filament formation and depolymerisation was performed (FIGS. 8A-B). These fibres are also abundant in Alzheimer brain and contain a core of cross-β-structure, but are located outside the cells, in contrast to the intracellular PHFs.
Commercial human Aβ1-40 was obtained from Calbiochem (Schwalbach, Germany) and stored at −20° C. The AD peptide was routinely dissolved in 100% DMSO to obtain a 2 mM stock solution, which was subsequently stored frozen at −20° C. 5 μl from the 2 mM Aβ stock solution was added to 90 μl of 25 mM phosphate buffer containing 120 mM NaCl, and 0.02% sodium azide, final pH 7.4 and 5 μl of 100% DMSO so that the final DMSO concentration was 10% v/v, and the protein concentration was adjusted to 100 μM. Incubations were at room temperature. In order to accelerate aggregation tubes were put on a lab shaker and agitated at moderate speed. For analysis 5 μl of this solution were added to 45 μl 10 mM phosphate buffer containing 6 μM thioflavine T, pH 6.0, after 30 minutes incubation at room temperature the fluorescence was measured at 504 nm emission by an excitation of 409 nm. To correlate fibril morphology with the fluorescence signal, aliquots of the Aβ1-40 solutions were simultaneously prepared for electron microscopy. The inhibition of fibril formation and disassembly of pre-formed Aβ-fibrils were carried out in triplicates with 60 μM compound and 10 μM protein.
Aβ peptide 1-40 (10 μM) was incubated with moderate shaking overnight at room temperature and incubated with various compounds (60 μM) overnight.

[1] = ThS fluorescence, overnight 37° C., read-out: Depolymerisation of PHFs DC50, K18
[2] = ThS fluorescence, read-out: Inhibition of tau aggregation IC50, hTau23

| SMILES | IC50 (htau24) [µM] | DC50 (PHFs from K18; read-out: Depolymerisation of PHFs DC50, K18, ThS fluorescence, overnight 37° C.) [µM] | DC50 (PHFs from K18/ΔK280) [µM] | IC50 (htau23) [µM] | inhibition at 60 µM (htau24; 60 μM compound) [%] | inhibition of Aβ fibre aggregation (Aβ1-40 peptide) | DC50 (PHFs from K18; [1]) [µM] | inhibition at 0.1 µM (htau23; 0.1 μM compound) [%] | inhibition at 60 µM (htau23; 60 μM compound) [%] | IC50 (htau23; [2]) [µM] | effect on PHF formation, htau24 (htau24) | Depolymerisation of PHFs DC50, K18/ΔK280 (PHFs from K18/ΔK280) | effect on PHF formation, htau23 (htau23) | inhibition at 60 µM (htau24) [%] | inhibition at 0.1 µM (htau23) [%] | inhibition at 60 µM (htau23) [%] | inhibition at 60 µM (Aβ1-40 peptide; 10 μM Aβ1-40, read-out: inhibition of Aβ filament formation) [%] |
| --- | --- | --- | --- | --- | --- | --- | --- | --- | --- | --- | --- | --- | --- | --- | --- | --- | --- |
| COc1cccc2c1C(=O)c1c(O)c3c(c(O)c1C2=O)CC(O)(C(=O)CO)CC3OC1CC(N)C(O)C(C)O1 (centres unmarked) [Adriamycin, 10-(4-Amino-5-hydroxy-6-methyl-tetrahydro-pyran-2-yloxy)-6,8,11-trihydroxy-8-(2-hydroxyethanoyl)-1-methoxy-7,8,9,10-tetrahydro-naphthacene-5,12-dione, reference compound] | 2.7 | 4.3 | 22 | 0.2 | – | – | – | – | – | – | – | – | – | – | – | – | – |
| Cc1cc(O)c2c(c1)C(=O)c1cc(O)cc(O)c1C2=O [Emodin, 1,3,8-Trihydroxy-6-methyl-anthraquinone] | 1.8 | – | 2.7 | – | 70 to 90 | most efficient | 2 | ~50 | ~90 | 0.2 | – | – | – | – | – | – | – |
| O=C1c2ccc(O)c(O)c2C(=O)c2c(O)ccc(O)c21 [PHF016, 1,2,5,8-Tetrahydroxy-anthraquinone] | > 60 | – | > 60 | – | – | most efficient | 7.3 | – | ~50 | 1 | only a small effect | not accurately detectable | only a slight effect | – | – | – | – |
| COc1cccc2c1C(=O)c1c(O)c3c(c(O)c1C2=O)CC(O)(C(C)=O)CC3OC1CC(N)C(O)C(C)O1 (centres unmarked) [Daunorubicin, 8-Acetyl-10-(4-amino-5-hydroxy-6-methyl-tetrahydro-pyran-2-yloxy)-6,8,11-trihydroxy-1-methoxy-7,8,9,10-tetrahydro-naphthacene-5,12-dione, reference compound] | 3.4 | – | 7.7 | – | – | most efficient | 4 | – | – | 0.1 | – | – | – | 70 to 90 | ~50 | ~90 | – |
| O=C(c1ccccc1)c1ccc(O)c(O)c1O [PHF005, 1-Phenyl-1-(2,3,4-trihydroxy-phenyl)-methanone] | > 100 | – | > 100 | – | – | – | 20.8 | – | ~50 | 1.1 | only a small effect | not accurately detectable | only a slight effect | – | – | – | ~50 |
